Test results as given in EP0036153A1, “1,1-Diphenyl-2-(1,2,4-triazol-1-yl)-ethan-1-oles as antimycotic agents” (BASF Aktiengesellschaft, priority 1980, dated 1981).
≈ marks a conversion by molar mass, not a printed value. Counter-ions that a name gives are not always drawn. Like-named read-outs stand apart in the source and are kept apart here.

Columns and labels:
[1] = tested on: Candida albicans (Robin) Berkhout No 20/M; test: Pseudomycelium and mycelium phase test with Candida albicans (minimal inhibitory concentration, 100 % inhibition); assay type: cell-based; conditions: microaerophilic, 2 days, 37°C; for MIC: Candida albicans, 48 h, read-out: MHKMyzelph.
Source text: Pseudomyzel- und Myzelphasentest mit Candida albicans: • Dieser Test berücksichtigt, daß C. albicans in vivo nicht nur Sproßzellen, sondern auch Pseudomyzel und echtes Myzel ausbilden kann (Dimorphie). In vitro wird die Ausbildung aller Wachstumsphasen dieses Keimes und der Einfluß von antimyzetisch wirksamen Substanzen in folgender Weise geprüft: Candida albicans (Robin) Berkhout No 20/M (Stamm der Mykothek, Nordmark-Werke GmbH) wird mit der Impföse einerseits auf die Oberfläche A des Nährmediums (Brain Heart Infusion, Difco) und andererseits bei B als Stichkultur angeimpft (Figur).
Im Bereich der Stichkultur wird zusätzlich ein Deckglas C aufgelegt (mikroaerophile Bedingungen). Die Petrischale D enthält im Nährmedium eine geometrisch abgestufte Verdünnungsreihe der jeweiligen Prüfsubstanz. Nach Inkubation dieser Testplatten (2 Tage, 37°C) sind in präparatefreien Kontrollplatten im aeroben Berzirk A ausschließlich Sproßzellen (Hefephase), im mikroaerophilen Bezirk B ausschließlich Pseudohyphen und echte Hyphen gewachsen.
Als minimale Hemmkonzentrationen wurden diejenigen Konzentrationsstufen des Prüfpräparates bezeichnet, bei denen eine 100 %ige Hemmung des jeweiligen Pilzwachstums zu beobachten war.
Diese Testanordnung ermöglicht es, zwischen der minimalen Hemmkonzentration der Hefephase (MHKHefephase) ) und der MHK der Pseudomyzelphase bzw. M^yzelphase (MHKMyzelDhase) für Candida albicans zu unterscheiden.
Während die MHK-Werte für die Hefephase bei über 128 µg/ml liegen, ergeben sich für die Mycelphase äußerst niedrige MHK-Werte, wie aus der Tabelle 1 hervorgeht.

[2] = Acute oral toxicity (LD50) in the mouse; assay type: in vivo; conditions: for LD50: mouse, in vivo, po, Maus
M. canis = test: Agar dilution test against dermatophytes; assay type: cell-based; conditions: Microsporum canis, read-out: MHK
Source text: (§1) Die antimikrobielle Wirksamkeit in vitro gegen Dermatophyt wurde im Agar-Dilutionstest (Lit.: P. Klein "Bakteriologische Grundlagen der chemotherapeutischen Laboratoriumspraxis") ermittelt. Das Ergebnis dieser Untersuchungen am Beispiel der Verbindung Nr. 3 zeigt Tabelle 2.

T. violaceum = test: Agar dilution test against dermatophytes; assay type: cell-based; conditions: Trichophyton violaceum; T. violaceum No. 10; read-out: MHK
Source text: as §1

M. audouinii = test: Agar dilution test against dermatophytes; assay type: cell-based; conditions: Microsporum audouinii; M. audouinii No. 4; read-out: MHK
Source text: as §1

E. floccosum = test: Agar dilution test against dermatophytes; assay type: cell-based; conditions: Epidermophyton floccosum; E. floccosum No. 157; read-out: MHK
Source text: as §1

T. schoenleinii = test: Agar dilution test against dermatophytes; assay type: cell-based; conditions: T. schoenleinii No. 9; read-out: MHK
Source text: as §1

T. mentagroph. = test: Agar dilution test against dermatophytes; assay type: cell-based
Source text: as §1

M. ferrugineum = test: Agar dilution test against dermatophytes; assay type: cell-based; conditions: M. ferrugineum No. 5; read-out: MHK
Source text: as §1

Compound | MIC [1] | LD50 [2] | MHKMyzelph. [1] | LD50 (Maus) p.o. [2] | further results
OC(Cn1cncn1)(c1ccc(Cl)cc1)c1ccc(Cl)cc1 [Beispiel 1, 1,1-Bis-(4-chlorphenyl)-2-(1.2.4-triazol-1-yl)--äthan-1-ol] | < 0.125 µg/mL | > 1000 mg/kg | – | – | –
OC(Cn1cncn1)(c1ccc(Cl)cc1)c1ccc(Cl)cc1 [Beispiel 2, 1,1-Bis-(4-chlorphenyl)-2-(1.2.4-triazol-1-yl)--äthan-1-ol-hydrochlorid] | – | – | <0,125 µg/ml | >1000 mg/kg | –
OC(Cn1cncn1)(c1ccc(Cl)cc1)c1ccc(Cl)cc1Cl (centres unmarked) [Beispiel 3, 1-(4-Chlorphenyl)-1-(2,4-dichlorphenyl)-2-(1,2,4-triazol-1-yl)-äthan-1-ol] | < 0.125 µg/mL | – | – | >4000 mg/kg | MIC (M. canis; M. canis No. 167): 4 µg/mL (≈ 10.9 µM); MIC (M. canis; M. canis No. 168): 2 µg/mL (≈ 5.43 µM); MIC (M. canis; M. canis No. 169): 8 µg/mL (≈ 21.7 µM); MIC (T. violaceum): 2 µg/mL (≈ 5.43 µM); MIC (M. audouinii): 0.25 µg/mL (≈ 0.678 µM); MIC (E. floccosum): 16 µg/mL (≈ 43.4 µM); MIC (T. schoenleinii): 0.25 µg/mL (≈ 0.678 µM); MIC (T. mentagroph.; T. mentagroph. No. 172, read-out: MHK): 0.25 µg/mL (≈ 0.678 µM); MHK (T. mentagroph.; T. mentagroph. No. 173): 0,25 µg/ml; MIC (M. ferrugineum): 0.5 µg/mL (≈ 1.36 µM)
OC(Cn1cncn1)(c1ccc(Cl)cc1)c1ccc(Cl)cc1Cl (centres unmarked) [Beispiel 4, 1-(4-Chlorphenyl)-1-(2,4-dichlorphenyl)-2-(1.2.4--triazol-1-yl)-äthan-1-ol-hydrochlorid] | – | – | <0,125 µg/ml | >1000 mg/kg | –
OC(Cn1cncn1)(c1ccc(Cl)cc1)c1ccc(Cl)cc1Cl (centres unmarked) [Beispiel 5, 1-(4-Chlorphenyl)-1-(2,4-dichlorphenyl)-2-(1.2.4--triazol-1-yl)-äthan-1-ol-nitrat] | – | – | <0,125 µg/ml | >1000 mg/kg | –
OC(Cn1cncn1)(c1ccccc1)c1ccccc1Cl (centres unmarked) [Beispiel 6, 1-Phenyl-1-(2-chlorphenyl)-2-(1.2.4-triazol-1-yl)--äthan-1-ol-hydrochlorid] | < 0.125 µg/mL | > 1000 mg/kg | – | – | –
OC(Cn1cncn1)(c1ccccc1)c1ccc(Cl)cc1 (centres unmarked) [Beispiel 7, 1-Phenyl-1-(4-chlorphenyl)-2-(1.2.4-triazol-1-yl)-äthan--1-ol-hydrochlorid] | – | – | – | >1000 mg/kg | –
OC(Cn1cncn1)(c1ccccc1)c1ccc(Cl)cc1 (centres unmarked) [Beispiel 8, 1-Phenyl-1-(4-chlorphenyl)-2-(1.2.4-triazol-1-yl)--äthan-1-ol-nitrat] | < 0.125 µg/mL | > 1000 mg/kg | – | – | –
OC(Cn1cncn1)(c1ccccc1)c1ccc(Cl)cc1Cl (centres unmarked) [Beispiel 9, 1-Phenyl-1-(2,4-dichlorphenyl)-2-(1.2.4-triazol-1-yl)--äthan-1-ol] | < 0.125 µg/mL | > 1000 mg/kg | – | – | –
OC(Cn1cncn1)(c1ccccc1)c1ccc(Cl)cc1Cl (centres unmarked) [Beispiel 10, 1-Phenyl-1-(2,4-dichlorphenyl)-2-(1.2.4-triazol-1-yl)--äthan-1-ol-hydrochlorid] | – | – | <0,125 µg/ml | >1000 mg/kg | –
OC(Cn1cncn1)(c1ccccc1)c1ccc(Cl)cc1Cl (centres unmarked) [Beispiel 11, 1-Phenyl-1-(2,4-dichlorphenyl)-2-(1.2.4-triazol-1-yl)--äthan-1-ol-nitrat] | – | – | <0,125 µg/ml | >1000 mg/kg | –
OC(Cn1cncn1)(c1ccc(Cl)cc1)c1ccccc1Cl (centres unmarked) [Beispiel 12, 1-(2-Chlorphenyl)-1-(4-chlorphenyl)-2-(1.2.4-triazol--1-yl)-äthan-1-ol-hydrochlorid] | 1 µg/mL | > 1000 mg/kg | – | – | –
OC(Cn1cncn1)(c1ccccc1Cl)c1ccc(Cl)cc1Cl (centres unmarked) [Beispiel 13, 1-(2-Chlorphenyl)-1-(2,4-dichlorphenyl)-2-(1.2.4-triazol-1-yl)-äthan-1-ol] | 1 µg/mL (≈ 2.71 µM) | > 1000 mg/kg | – | – | –
OC(Cn1cncn1)(c1ccccc1Cl)c1ccc(Cl)cc1Cl (centres unmarked) [Beispiel 14, 1-(2-Chlorphenyl)-1-(2,4-dichlorphenyl)-2-(1.2.4-triazol-1-yl)-äthan-1-ol-hydrochlorid] | – | – | 1 µg/mL | >1000 mg/kg | –
OC(Cn1cncn1)(c1cccc(Cl)c1)c1ccc(Cl)cc1Cl (centres unmarked) [Beispiel 15, 1-(3-Chlorphenyl)-1-(2,4-dichlorphenyl)-2-(1.2.4-triazol-1-yl)-äthan-1-ol] | – | > 1000 mg/kg | <0,125 µg/ml | – | –
OC(Cn1cncn1)(c1cccc(Cl)c1)c1ccc(Cl)cc1Cl (centres unmarked) [Beispiel 16, 1-(3-Chlorphenyl)-1-(2,4-dichlorphenyl)-2-(1.2.4-triazol-1-yl)-äthan-1-ol-hydrochlorid] | – | – | 1 µg/mL | >1000 mg/kg | –
